Patent publication US11931345B2, “Thiazolidinedione analogs for the treatment of NAFLD and metabolic diseases” (Cirius Therapeutics, Inc., priority 2018, dated 2024)

What was measured:
[1] = tested on: diet-induced obese (60% HF diet) WT (fl/fl) and LS-MPC2-/- mice; test: Intraperitoneal glucose tolerance test and plasma insulin in diet-induced obese WT and LS-MPC2-/- mice after a single dose; assay type: in vivo, mouse; settings: for glucose tolerance (GTT): 20 h after a single dose of 30 mg/kg; for plasma insulin: single dose 30 mg/kg
Experimental: (§1) 8 week old WT and LS-MPC2−/− mice were fed a diet of 60% fat (Research Diets D12492) for 20 weeks to induce obesity and insulin resistance. Intraperitoneal glucose tolerance tests (GTT) were performed after a 4 h fast by injection of 1 g/kg D-glucose in saline i.p. to assess glucose tolerance. 3 days after the initial GTT, mice were randomized to receive a single gavage of either vehicle (1% CMC, 0.01% Tween-80) or 30 mg/kg MSDC-0602K. Plasma insulin was measured by Singulex assay and plasma ALT levels were measured by commercially-available kits (Teco Diagnostics). qPCR was performed by isolation of total RNA with RNA-Bee and reverse transcription with a high-capacity cDNA synthesis kit (Invitrogen). qPCR was performed on an Applied Biosystems real-time thermocycler.

[2] = tested on: uncoupling protein 1 (UCP1); test: UCP1 expression (Western blot) in brown adipose precursors in vitro, with T3; assay type: cell-based; settings: added to T3 0 to 30 nM; sensitivity and magnitude of response; FIG. 14
Excerpt: FIG. 14. Is a graphic representation of the data of thyroid hormone with MSDC-0602 in vitro.
The addition of the thyroid agonist not only increases the maximum response. […] The response measured here is increased expression of the uncoupling protein 1 (UCP1) on Western blot—a measure of differentiation of brown adipose cells.

[3] = tested on: diet-induced obese (60% HF diet) WT (fl/fl) and LS-MPC2-/- mice; test: Markers of liver injury (plasma ALT, qPCR gene expression) in obese WT and LS-MPC2-/- mice after a single dose; assay type: in vivo, mouse
Experimental: as §1

pancreatic islets = test: Pancreas histology and IHC of ZDSD/Pco rats (insulin, Ki67, PDX-1, Bcl2); assay type: in vivo, rat; settings: pancreas at sacrifice; high fat diet; oral MSDC-0602 30 mg/kg, exenatide s.q. 1 μg
Experimental: (§2) Male ZDSD/Pco rats were maintained on standard chow 5008 (Purina) until treatment groups were switched to the high fat diet (Purina 5SCA). […] Control rats (given both vehicles) were maintained on the normal diet and the treatment groups were switched to the high fat diet as indicated. Glucose and insulin were measured weekly from tail vein samples. On day 36 an oral glucose tolerance test (OGTT); 2 g/kg) was conducted after a 16 hour fast. Glucose samples were taken at 0, 30, 60, 90, and 120 minutes; insulin was measured at 0 and 30 minutes and the change at 30 minutes is shown. Data are mean and SE; N=10. At sacrifice, the pancreas was fixed in formalin and shipped to MSU for histology and IHC. A range of anti-bodies were used to identify and quantify the presence of insulin, Ki67, collagen, CD3 lymphocytes, PDX-1 and Bcl2. An Image-Pro system was used with Image J to quantify the degree of positive staining. […] Five matched groups of ZDSD/Pco rats were selected at 14 weeks of age and then treated for 6 weeks. […] At sacrifice, the pancreas was removed, fixed, and stained for insulin, PDX1, and Ki67, as an index of proliferation.

serum miRNAs = test: Serum miRNA sequencing in NASH (HTF-C) diet mice; assay type: in vivo, mouse
Experimental: To begin evaluating the exosome cargo of MSDC-0602K-treated mice, WT mice were fed with either a low fat (LF) control diet (Research Diets D09100304) or high trans-fat, fructose, cholesterol (HTF-C) diet composed of 40% trans-fat, 20% fructose, 2% cholesterol (Research Diets D09100301).
Total RNA was isolated from 400 μL of serum and small RNA sequencing was performed by adapter ligation, cDNA synthesis and size selection of 145-160 base pairs. Sequencing was then performed on an Illumina HiSeq3000.

[4] = phase 2 clinical trial, cited from earlier work
mouse model of NASH = settings: effects require MPC expression in hepatocytes; cited from earlier work
[5] = tested on: ZDSD/Pco rats challenged with a high fat diet; test: ZDSD/Pco rats on high fat diet: circulating glucose, insulin, OGTT; assay type: in vivo, rat; settings: over 4 week treatment, compared to group 2 (control treatment on high fat diet); oral MSDC-0602 30 mg/kg, exenatide s.q. 1 μg
Experimental: as §2

[6] = molecular target: T1, mitochondrial pyruvate carrier (MPC) (Homo sapiens, UniProt O95563+Q9Y5U8); settings: cited from earlier work
T1 sequence (Q9Y5U8 1-109): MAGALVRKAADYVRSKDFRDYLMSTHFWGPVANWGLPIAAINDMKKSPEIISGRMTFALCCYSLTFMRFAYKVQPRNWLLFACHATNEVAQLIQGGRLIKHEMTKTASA
T1 sequence (O95563 1-127): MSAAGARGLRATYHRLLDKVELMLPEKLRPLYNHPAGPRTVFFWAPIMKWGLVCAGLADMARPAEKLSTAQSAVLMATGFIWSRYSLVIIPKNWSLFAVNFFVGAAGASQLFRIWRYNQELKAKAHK

Structure (SMILES) | glucose tolerance (GTT) ([1]; WT mice) | increase of UCP1 expression, interaction with thyroid hormone [2] | liver injury, major acute effects ([3]; acute dosing, effects require hepatocyte MPC) | insulin staining (pancreatic islets) | number of islet cells (pancreatic islets) | serum miRNAs altered in NASH model (serum miRNAs; HTF-C diet containing 331 ppm MSDC-0602, heat map of ~230 miRNAs) | serum miRNAs upregulated in NASH (mmu-miR-29c-3p, mmu-miR-802-3p, mmu-miR-802-5p) (serum miRNAs; HTF-C diet, FIGS. 13A-13C) | serum miRNAs down in NASH (mmu-miR-127-3p, mmu-miR-129-2-3p, mmu-miR-615-3p) (serum miRNAs; HTF-C diet, FIGS. 13D-13F) | serum miRNAs mmu-miR-129-5p, mmu-miR-205-5p (serum miRNAs; HTF-C diet, FIGS. 13G-13H) | circulating glucose ([4]; FIG. 1A) | circulating insulin ([4]; FIG. 1B) | liver damage (mouse model of NASH) | glucose levels [5] | glucose tolerance (GTT) ([1]; LS-MPC2-/- mice) | plasma insulin ([1]; LS-MPC2-/- mice) | plasma insulin ([1]; WT mice) | MPC binding and modulation [6] | plasma ALT and liver injury gene expression, response to acute treatment ([3]; LS-MPC2-/- mice, single dose) | plasma ALT concentrations ([3]; WT mice, single dose, FIG. 11A) | gene expression for hepatic stellate cell activation and fibrotic scar formation ([3]; WT mice, single dose, FIG. 11B)
COc1cccc(C(=O)COc2ccc(CC3SC(=O)[N-]C3=O)cc2)c1.[K+] (stereo not shown) [MSDC-0602K] | improves glucose tolerance | synergistic | attenuate liver injury | – | – | – | – | – | – | – | – | – | – | – | – | – | – | – | – | –
COc1cccc(C(=O)COc2ccc(CC3SC(=O)NC3=O)cc2)c1 (stereo not shown) [MSDC-0602] | improved glucose tolerance | synergy (much larger response) | – | increased | increased | largely corrected | down | up | large effect | lowered | lowered | prevents and reverse liver damage | significantly reduced | no improvement in glucose tolerance | decreased | decreased | binds and modulates | refractory | decreased | decreased
